These results are taken from publication PMC12629158, “Cytotoxic Activity of Opopanax hispidus (Friv.) Griseb.: Characterization of a New Chalcone‐type Compound” (Chemistry & Biodiversity, 2025).

In one data set the test system is MCF‐7 cells. The arrangement: method as in earlier work. Conditions: isolated from Sansevieria cylindrica; cited from earlier work.
For data set [1], the system named is A549. Description: MTT cytotoxicity assay, A549. Format: cell-based, human. The note with it: for antiproliferative effect of isolated compounds (in words): A549 lung cancer cells, tested concentrations 0.5–50 µM; for IC50: Homo sapiens, A549, 48 h, MTT, 48 h, read-out: IC50 ± SEM, A549. The method, then: (§1) Adenocarcinomic human alveolar basal epithelial cell line (A549), human cervical cancer cell line (HeLa), human breast cancer cell line (MCF‐7), human hepatocellular carcinoma cell line (HepG2), and human bronchial epithelial cell line (BEAS‐2B) were used for the cytotoxicity test panel of crude extract. […] Therefore, A549 was used in further activity‐guided fractionation and isolation studies. The cell lines were cultured in Dulbecco's Modified Eagle Medium (DMEM) supplemented with 10% fetal bovine serum (FBS), 1% L‐glutamine, and 1% penicillin‐streptomycin. Cells were maintained in an incubator at 37°C under 5% CO2.
(§2) MTT assay was used to determine the cytotoxic activity of the crude extract, subextracts, main fractions, and isolated compounds. MTT assay, called the “gold standard” of cell viability tests, is based on measuring metabolic activity. The cells reaching sufficient confluence were counted and plated in 96‐well plates (6 × 10^3 cells/well). After 24 h, cells were treated with five concentrations of the extracts (1–100 µg/mL), main fractions (1–100 µg/mL), or pure compounds (0.5–50 µM) in DMSO. Doxorubicin (10/3/1/0.3 µM) was used as a positive control. The plates were incubated with test materials for 48 h. After treatment, the supernatant was removed, and fresh medium and MTT solution (1 g/L in PBS) were added to each well. The cells were incubated for three h at 37°C. The resulting formazan crystals were dissolved in DMSO, and finally, the absorbance was detected at 570 nm using a spectrophotometer (SpectraMax i3x; Molecular Devices, San Jose, CA, USA). All data were collected from three independent experiments, and at least n = 6 data points were obtained. IC50 values were calculated as µg/mL for extracts or fractions and as µM for pure compounds.

A further data set deals with Beas‐2B. Description: MTT cytotoxicity assay, Beas‐2B healthy cell line. Conditions: for IC50: Homo sapiens, BEAS-2B, 48 h, MTT, read-out: IC50 ± SEM, Beas‐2B. Format: cell-based, human. The method, then:
as §1, §2

In data set [2] the test system is A549. Description: Selectivity index (IC50 non‐cancerous cells / IC50 cancerous cells). The note with it: IC50 Beas‐2B / IC50 A549. Format: cell-based, human. As for the experimental part:
The selectivity index (SI), which indicates the selectivity between cancer and normal cells, was calculated. The compounds with an SI greater than 1 are more likely to inhibit cancer cells than non‐cancerous cells. SI values were calculated by the formula of [(IC50 values of non‐cancerous cells)/(IC50 values of cancerous cells)].

Where [3] appears, read: isolated compounds 0.5–50 µM (Table 4).
[4] abbreviates: doxorubicin positive control (Table 2 footnote).
Where [5] appears, read: doxorubicin positive control (Table 3 footnote).

The structures appear in SMILES notation. In brackets after ≈: the same amount, converted by molar mass. Entries after “also recorded” stand apart in the source; their conditions may differ. Where two headings read alike, the source gives them in different places.

`COc1c(O)ccc(C(=O)C(CO)Cc2ccc3c(c2)OCO3)c1O` (stereo not shown) [2′,4′‐dihydroxy‐3′‐methoxy‐3,4‐methylenedioxy‐8‐hydroxymethylene dihydrochalcone]: in the data set on MCF‐7 cells, the “IC50, cytotoxic effect against MCF‐7 cells” value is reported as 34 µg/mL (≈ 98.2 µM).

Regarding `O=C(O)c1cc2ccc(=O)oc2cc1O` [Compound 1, umbelliferone 6‐carboxylic acid], the “antiproliferative effect of isolated compounds (in words)” value (“antiproliferative effect” below) with A549 [1] was “did not show an antiproliferative effect; also recorded: did not show antiproliferative activity”. Moreover, the IC50 in the data set on A549 [1] (setting [3]) and in the data set with Beas‐2B (setting [3]) was more than 50 µM in each case.

As to `O=c1ccc2ccc(O)cc2o1` [Compound 2, umbelliferone], in the data set on A549 [1], the “antiproliferative effect” value was “did not show an antiproliferative effect; also recorded: did not show antiproliferative activity”. The IC50 in the data set on A549 [1] (setting [3]) and in the data set with Beas‐2B (setting [3]) was more than 50 µM throughout.

As for `COc1cc(O)c(C(=O)C[C@H](O)c2ccc(O)c(CC=C(C)C)c2)c(O)c1` [Compound 3, 2',6'‐dihydroxy‐4'‐methoxy‐3''‐(ɤ,ɤ‐dimethylallyl)‐4''‐hydroxy β‐hydroxydihydrochalcone], in the data set with A549 [1], the “antiproliferative effect” value is on record as “significant activity”. Also, the values for the concentration for half-maximal inhibition (IC50) in the data set on A549 [1] (setting [3]) and in the data set with Beas‐2B (setting [3]) were 13.7 ± 0.8 µM and 12 ± 1.5 µM, respectively. Moreover, the “cytotoxicity against normal cells compared with doxorubicin (in words)” value with Beas‐2B (normal cells (Beas‐2B)) is listed as “lower cytotoxicity against normal cells than doxorubicin”. In addition, the “SI (selectivity index)” value with A549 [2] (Table 4) is 0.87.

Turning to `CC(C)(O)[C@H]1Cc2cc3ccc(=O)oc3cc2O1` [Compound 4, nodakenetin], the “antiproliferative effect” value in the data set with A549 [1] is listed as “did not show an antiproliferative effect; also recorded: did not show antiproliferative activity”. The IC50 in the data set on A549 [1] (setting [3]) and in the data set with Beas‐2B (setting [3]) was more than 50 µM in each case.

On to `COc1cccc2c1C(=O)c1c(O)c3c(c(O)c1C2=O)C[C@@](O)(C(=O)CO)C[C@@H]3O[C@H]1C[C@H](N)[C@H](O)[C@H](C)O1` [Dox, doxorubicin, reference compound], for which the half-maximal inhibitory concentration (IC50) came out at 0.82 ± 0.13 µM with A549 [1] (setting [4]); 0.59 ± 0.05 µM in the data set with A549 [1] (setting [5]); 0.59 ± 0.05 µM in the data set on A549 [1] (setting [3]); 0.34 ± 0.02 µM in the data set on Beas‐2B (setting [4]); 0.07 ± 0.017 µM in the data set with Beas‐2B (setting [5]); 0.07 ± 0.017 µM in the data set on Beas‐2B (setting [3]). Further, the “SI (selectivity index)” value in the data set on A549 [2] (Table 3) came out at 0.12.
